The values below come from patent US12358912B2 (ASCENTAGE PHARMA (SUZHOU) CO., LTD., priority 2020, dated 2025).

The nature of series [1]: Stability test (2): salt crystalline forms at high temperature, high humidity and light, detection by HPLC and XRPD. The series is classed as physicochemical. The conditions noted are these: for total impurities (%): HPLC.
Series [2] is described as follows: Evaluation of hygroscopicity by Dynamic Moisture Sorption Analyzer (DVS), with XRPD before and after DVS. The series is classed as physicochemical. The note with it: for weight increase by hygroscopy (80% RH): DVS; for XRPD change: XRPD before and after DVS.
The mark [3] stands for this setting: light (RT, white light 6980 lux, UV 282 μW/cm2), 5 days.
Setting [4] is: light (RT, white light 6980 lux, UV 282 μW/cm2), 10 days.
The mark [5] stands for this setting: 60° C. (open), 5 days, listed as XXXVI.
[6] abbreviates: 60° C. (open), 10 days, listed as XXXVI.
Setting [7] is: 60° C. (open), 30 days, listed as XXXVI.
Where [8] appears, read: light (RT, white light 6980 lux, UV 282 μW/cm2), 5 days, listed as XXXVI.
Where [9] appears, read: light (RT, white light 6980 lux, UV 282 μW/cm2), 10 days, listed as XXXVI.
Setting [10] is: 60° C. (open), 5 days, listed as XL.
The mark [11] stands for this setting: 60° C. (open), 10 days, listed as XL.
Setting [12] is: 60° C. (open), 30 days, listed as XL.
The mark [13] stands for this setting: light (RT, white light 6980 lux, UV 282 μW/cm2), 5 days, listed as XL.
Where [14] appears, read: light (RT, white light 6980 lux, UV 282 μW/cm2), 10 days, listed as XL.

Turning to `O=C(NS(=O)(=O)c1ccc(NC[C@H]2COCCO2)c([N+](=O)[O-])c1)c1ccc(N2CCN(CC3=C(c4ccc(Cl)cc4)CC4(CCC4)CC3)CC2)cc1Oc1cnc2[nH]ccc2c1.O=S(=O)(O)c1ccccc1` [XXVII], the XPRD result in series [1] (60° C. (open), 5 days) is “No change”; in series [1] (60° C. (open), 10 days), “No change”; in series [1] (60° C. (open), 30 days), “No change”; in series [1] (RT/75% RH (open), 5 days), “No change”; in series [1] (RT/75% RH (open), 10 days), “No change”; in series [1] (RT/75% RH (open), 30 days) it was “No change”. Besides, the XPRD result in series [1] (setting [3]) is on record as “No change”; in series [1] (setting [4]), “No change”; in series [1] (the initial sample, 0 day), “XXVII”. The “total impurities (%)” value in series [1] (60° C. (open), 5 days) came out at 1.26%; in series [1] (60° C. (open), 10 days) it was 1.37%; in series [1] (60° C. (open), 30 days), 1.33%; in series [1] (RT/75% RH (open), 5 days), 1.22%; in series [1] (RT/75% RH (open), 10 days), 1.25%; in series [1] (RT/75% RH (open), 30 days) it was 1.27%. Besides, the “total impurities (%)” value is on record as 1.20% in series [1] (setting [3]); 1.28% in series [1] (setting [4]); 1.19% in series [1] (the initial sample, 0 day). Further, in series [2], the “weight increase by hygroscopy (80% RH)” value amounted to 3.32%. In addition, in series [2], the XRPD change entry was “no change”.

Turning to `O=C(NS(=O)(=O)c1ccc(NC[C@H]2COCCO2)c([N+](=O)[O-])c1)c1ccc(N2CCN(CC3=C(c4ccc(Cl)cc4)CC4(CCC4)CC3)CC2)cc1Oc1cnc2[nH]ccc2c1.O=C(O)CC(O)(CC(=O)O)C(=O)O` [XXXIX], the XPRD entry in series [1] (60° C. (open), 5 days) was “No change”; in series [1] (60° C. (open), 10 days), “No change”; in series [1] (60° C. (open), 30 days) it was “No change”; in series [1] (RT/75% RH (open), 5 days) it was “No change”; in series [1] (RT/75% RH (open), 10 days), “No change”; in series [1] (RT/75% RH (open), 30 days) it was “No change”. In addition, the XPRD entry in series [1] (setting [3]) is recorded as “No change”; in series [1] (setting [4]), “No change”; in series [1] (the initial sample, 0 day) it was “XXXIX”. For the same compound, the “total impurities (%)” value in series [1] (60° C. (open), 5 days) worked out at 0.90%; in series [1] (60° C. (open), 10 days), 0.89%; in series [1] (60° C. (open), 30 days), 0.86%; in series [1] (RT/75% RH (open), 5 days), 0.80%; in series [1] (RT/75% RH (open), 10 days), 0.82%; in series [1] (RT/75% RH (open), 30 days) it was 0.81%. Moreover, the “total impurities (%)” value in series [1] (setting [3]) is on record as 0.88%; in series [1] (setting [4]), 1.02%; in series [1] (the initial sample, 0 day), 0.76%. In addition, in series [2], the “weight increase by hygroscopy (80% RH)” value stood at 0.37%. Besides, the XRPD change entry in series [2] is “no change”.

As for `O=C(NS(=O)(=O)c1ccc(NC[C@H]2COCCO2)c([N+](=O)[O-])c1)c1ccc(N2CCN(CC3=C(c4ccc(Cl)cc4)CC4(CCC4)CC3)CC2)cc1Oc1cnc2[nH]ccc2c1.O=S(=O)(O)O` [XXX], the XPRD result in series [1] (60° C. (open), 5 days) is given as “No change”; in series [1] (60° C. (open), 10 days) it was “No change”; in series [1] (60° C. (open), 30 days) it was “No change”; in series [1] (RT/75% RH (open), 5 days) it was “No change”; in series [1] (RT/75% RH (open), 10 days), “No change”; in series [1] (RT/75% RH (open), 30 days) it was “No change”. For the same compound, the XPRD result in series [1] (setting [3]) was “No change”; in series [1] (setting [4]) it was “No change”; in series [1] (the initial sample, 0 day), “XXX”. Besides, the “total impurities (%)” value amounted to 0.89% in series [1] (60° C. (open), 5 days); 0.92% in series [1] (60° C. (open), 10 days); 0.83% in series [1] (60° C. (open), 30 days); 0.82% in series [1] (RT/75% RH (open), 5 days); 0.86% in series [1] (RT/75% RH (open), 10 days); 0.74% in series [1] (RT/75% RH (open), 30 days). Also, the “total impurities (%)” value in series [1] (setting [3]) was found to be 0.82%; in series [1] (setting [4]) it was 1.02%; in series [1] (the initial sample, 0 day) it was 0.80%. In addition, the “weight increase by hygroscopy (80% RH)” value in series [2] was determined as 0.90%. Besides, the XRPD change result in series [2] is listed as “no change”.

On to `O=C(NS(=O)(=O)c1ccc(NCC2COCCO2)c([N+](=O)[O-])c1)c1ccc(N2CCN(CC3=C(c4ccc(Cl)cc4)CC4(CCC4)CC3)CC2)cc1Oc1cnc2[nH]ccc2c1` (stereo not drawn) [citrate crystalline Form XXXVI], for which the XPRD entry is recorded as “changed” in series [1] (setting [5]); “changed” in series [1] (setting [6]); “changed” in series [1] (setting [7]); “no change” in series [1] (setting [8]); “no change” in series [1] (setting [9]); “XXXVI” in series [1] (the initial sample, 0 day). The “total impurities (%)” value in series [1] (setting [5]) is 0.97%; in series [1] (setting [6]) it was 1.01%; in series [1] (setting [7]) it was 0.98%; in series [1] (RT/75% RH (open), 5 days, listed as XXXVI) it was 0.95%; in series [1] (RT/75% RH (open), 10 days, listed as XXXVI), 0.95%; in series [1] (RT/75% RH (open), 30 days, listed as XXXVI), 1.00%. Besides, the “total impurities (%)” value is on record as 1.06% in series [1] (setting [8]); 1.36% in series [1] (setting [9]); 1.02% in series [1] (the initial sample, 0 day, listed as XXXVI). For the same compound, the “weight increase by hygroscopy (80% RH)” value in series [2] (listed as XXXVI) is listed as 2.00%. Besides, the XRPD change entry in series [2] is reported as “no change”.

Turning to `O=C(NS(=O)(=O)c1ccc(NCC2COCCO2)c([N+](=O)[O-])c1)c1ccc(N2CCN(CC3=C(c4ccc(Cl)cc4)CC4(CCC4)CC3)CC2)cc1Oc1cnc2[nH]ccc2c1` (stereo not drawn) [maleate crystalline Form XL], the XPRD result in series [1] (setting [10]) is given as “No change”; in series [1] (setting [11]) it was “No change”; in series [1] (setting [12]), “No change”; in series [1] (RT/75% RH (open), 5 days), “No change”; in series [1] (RT/75% RH (open), 10 days), “No change”; in series [1] (setting [13]), “No change”. The XPRD entry in series [1] (setting [14]) is reported as “No change”. Further, the “total impurities (%)” value in series [1] (setting [10]) amounted to 1.15%; in series [1] (setting [11]), 1.18%; in series [1] (setting [12]), 1.28%; in series [1] (RT/75% RH (open), 5 days, listed as XL) it was 0.93%; in series [1] (RT/75% RH (open), 10 days, listed as XL), 1.06%; in series [1] (RT/75% RH (open), 30 days, listed as XL) it was 0.90%. In addition, the “total impurities (%)” value in series [1] (setting [13]) came out at 1.08%; in series [1] (setting [14]) it was 1.18%; in series [1] (the initial sample, 0 day, listed as XL), 0.91%. In addition, in series [2] (listed as XL), the “weight increase by hygroscopy (80% RH)” value is 1.41%. Besides, the XRPD change result in series [2] is listed as “no change”.

On to `O=C(NS(=O)(=O)c1ccc(NC[C@H]2COCCO2)c([N+](=O)[O-])c1)c1ccc(N2CCN(CC3=C(c4ccc(Cl)cc4)CC4(CCC4)CC3)CC2)cc1Oc1cnc2[nH]ccc2c1.O=C(O)/C=C\C(=O)O` [XXIV], for which the XPRD result in series [1] (60° C. (open), 5 days) is “No change”; in series [1] (60° C. (open), 10 days), “No change”; in series [1] (60° C. (open), 30 days) it was “No change”; in series [1] (RT/75% RH (open), 5 days) it was “No change”; in series [1] (RT/75% RH (open), 10 days), “No change”; in series [1] (RT/75% RH (open), 30 days), “No change”. Besides, the XPRD entry in series [1] (setting [3]) was “No change”; in series [1] (setting [4]) it was “No change”; in series [1] (the initial sample, 0 day), “XXIV”. Also, the “total impurities (%)” value in series [1] (60° C. (open), 5 days) was found to be 0.48%; in series [1] (60° C. (open), 10 days), 0.48%; in series [1] (60° C. (open), 30 days) it was 0.61%; in series [1] (RT/75% RH (open), 5 days) it was 0.50%; in series [1] (RT/75% RH (open), 10 days), 0.50%; in series [1] (RT/75% RH (open), 30 days) it was 0.50%. Also, the “total impurities (%)” value in series [1] (setting [3]) worked out at 0.73%; in series [1] (setting [4]) it was 0.72%; in series [1] (the initial sample, 0 day) it was 0.50%. Further, the “weight increase by hygroscopy (80% RH)” value in series [2] was found to be 1.246%. Further, the XRPD change entry in series [2] was “changed”.

As to `CS(=O)(=O)O.O=C(NS(=O)(=O)c1ccc(NC[C@H]2COCCO2)c([N+](=O)[O-])c1)c1ccc(N2CCN(CC3=C(c4ccc(Cl)cc4)CC4(CCC4)CC3)CC2)cc1Oc1cnc2[nH]ccc2c1` [XXXIII], the “total impurities (%)” value came to 0.90% in series [1] (60° C. (open), 5 days); 0.91% in series [1] (60° C. (open), 10 days); 1.11% in series [1] (60° C. (open), 30 days); 0.67% in series [1] (RT/75% RH (open), 5 days); 0.71% in series [1] (RT/75% RH (open), 10 days); 0.70% in series [1] (RT/75% RH (open), 30 days). Further, the “total impurities (%)” value in series [1] (setting [3]) worked out at 0.84%; in series [1] (setting [4]), 1.09%; in series [1] (the initial sample, 0 day) it was 0.67%. Further, the XPRD entry in series [1] (setting [3]) is on record as “No change”; in series [1] (setting [4]), “No change”; in series [1] (the initial sample, 0 day) it was “XXXIII”. The “weight increase by hygroscopy (80% RH)” value in series [2] is reported as 7.82%. Besides, in series [2], the XRPD change result is “changed”.
